# Measured values: patent US8771652B2, “Methods of blocking ultraviolet radiation and promoting skin growth using terpenes and terpenoids” (New York University, priority 2009, dated 2014)
# Read-outs that look alike come from different tables or passages of the source.
# Legend:
# [1] = system: human transplanted pancreatic adenocarcinomas; conditions: in vivo; cited from earlier work
# [2] = system: colon cancer; conditions: rats, 8 mg/kg, p<0.01; cited from earlier work
# [3] = system: breast cancer; conditions: rats, without any evidence of toxicity; cited from earlier work
# [4] = system: inflammation-relevant gene expression in rat skin; conditions: cited from earlier work
# [5] = system: gene expression in mouse dorsal skin; experiment: Affymetrix gene expression microarray of mouse skin after terpene and UVR; type: in vivo; conditions: for loricrin and vascular endothelial growth factor (VEGF) genes / matrix metalloproteinases: ingestion, animal models; for inflammation genes induced by UVR: per os daily for 4 days in 30 microL droplets prior to irradiation
# Method: Animals for the histology and microarray analysis were euthanized 24 hours after 4 days of terpene pre-feed and the UVR exposure.
# Gene expression microarray analysis was performed as follows: RNA was extracted from a 0.1 g sample of mouse skin and an equal quantity of keratinocytes by using the TRIZOL reagent (Invitrogen, Carlsbad, Calif., USA) according to the manufacture's instructions and 200 μg of total RNA was used for the isolation of poly A+ mRNA by using Oligotex mRNA mini columns (QIAGEN, Valencia, Calif., USA). The final centrifugation was performed after the incubation with 1/10 volume of 3.0 M NaOAc, 2.5 volumes of ethanol and 1 μl glycogen (Boehringer Mannheim GmbH, Mannheim, Germany) at −20° C. overnight. Then the pellet was resuspended in diethylpyrocarbonate (DEPC)-treated water. RNA was labeled with biotin and hybridized to a Mouse genome 430—2 GeneChip® microarray (Affymetrix, Inc. Santa Clara, Calif., USA). Data from the Affymetrix mouse expression array chip were imported into the BRB-ArrayTools Version 3.3.0 developed by the Biometric Research Branch of the U.S. National Cancer Institute for normalization and analysis. […] A value of P≦0.001 was chosen as statistically significant. […] For these calculations the entire list of genes on the Affymetrix (mouse 430—2) microarray was used as the reference list.
# Mice were treated with either UVR or UVR+beta-damascenone, and samples of tissue were removed from the dorsal skin for RNA extraction and analysis on an Affymetrix Microarray System utilizing mouse whole genome array chips Affy 430—2. The UVR sample served as the control in this preliminary experiment.
# [6] = system: skin; conditions: guinea pig, in vivo; cited from earlier work
# [7] = system: epidermis (keratinocytes, keratin layer) of SKH1 hairless mice; experiment: Histology of skin after terpene pre-feed and UVR; type: in vivo, mouse; conditions: for keratinocyte formation: ingestion, animal models
# Method: Histopathological diagnosis was performed on the skin samples.
# Animals for the histology and microarray analysis were euthanized 24 hours after 4 days of terpene pre-feed and the UVR exposure. Tissue samples from skin and other organs were frozen and prepared for histological diagnosis and for microarray analysis, which consisted of testing gene expression by utilizing Affymetrix mouse microarray chips containing about 39,000 transcripts with 45,101 probe sets.
# [8] = system: skin; conditions: in vivo; cited from earlier work
# [9] = system: skin; conditions: in vivo; cited from earlier work; remark: listed apart in the source
# [10] = in vivo; cited from earlier work
# [11] = system: skin; conditions: mouse, in vivo; cited from earlier work
# [12] = system: skin of SKH1 hairless mice; experiment: Sunburn (erythema) prevention by terpenes with solar-spectrum UVR exposure; type: in vivo, mouse; conditions: 4 daily 30 microL droplets before 15 minute exposure to 3.0 kJ/m2 UVR
# Method: All experiments were performed with female hairless mice (SKH1) utilizing solar spectrum ultraviolet radiation (UVR). Each experiment was performed in triplicate including controls and UVR-exposed mice and included a total of 22 mice per experiment for a total of 66 mice. The protocol included untreated mice, UVR-irradiated mice as controls for the terpene treatments, UVR+terpene mice and terpene-only mice.
# Four solar simulating FS-20 fluorescent lamps were used to deliver 3 kJ/m^2 measured by a calibrated International Light UV radiometer at the lamp distance between 20 to 24 cm. The UVR dose was selected to be just above the minimal erythemal dose for producing a ‘sunburn’ reaction in mouse skin (this is very similar to the minimal erythemal dose of fair-skinned humans).
# Each terpene was given to each mouse per os (by mouth) in 15-30 μL droplets (˜15-30 μg) via micropipette once each day for 4 consecutive days prior to and/or subsequent to UVR exposure. Animals were observed and photographed every 24 hours for a period of 6-7 days after the irradiation. Each terpene was administered in pure form. […] The UVR exposure of 3 kJ/m^2 was delivered seven (7) days after the last dose was administered. The animals were observed and photographed. […] Liponeate, a triglyceride fraction of coconut oil was used as a diluent. Concentration 1, 10 and 100% were tested. […]
# [13] = at concentrations in normal strength grapefruit juice (approximately 0.0035%, or 35 ppm); cited from earlier work
# [14] = system: melanoma cells; conditions: topical pretreatment but not post-treatment; cited from earlier work
# [15] = system: UVB-induced non-melanoma tumors; conditions: mouse, in vivo; cited from earlier work
compound,measurement,setting,value
CC(C)=CCC/C(C)=C/CO [Geraniol],effectiveness against tumor growth relative to perillyl alcohol,[1],about 5 fold
Oc1ccc(C=Cc2cc(O)cc(O)c2)cc1 [resveratrol],inhibition of colon cancer,[2],67%
C=C(C)[C@H]1CC=C(C)CC1 [d-limonene],initiation of breast cancer,[3],almost completely prevented
vitamin A,inflammation-relevant gene expression alterations caused by x-rays blocked,[4],about 80%
same,gene expression in controls,[4]; unirradiated controls,no effect
C/C=C/C(=O)C1=C(C)C=CCC1(C)C [beta-damascenone],significantly altered up-regulated category at level 4 of the Gene Ontology Tree,"[5]; UVR+terpene relative to UVR only, p<0.05",epidermal cell differentiation
same,loricrin and vascular endothelial growth factor (VEGF) genes,[5],upregulation
same,matrix metalloproteinases,[5],downregulation
same,inflammation genes induced by UVR,[5],blocked
same,inflammation-relevant genes,[5]; terpene+UVR relative to UVR only,strongly down-regulated
same,number of gene categories significantly down-regulated,"[5]; terpene+UVR relative to UVR only, p<0.05",13 categories
same,skin irritation,[6],No skin irritation
same,"keratinizing layer in the epidermis, terpene+UVR in comparison to UVR",[7]; histological observations,greatly increased
same,keratinocyte formation,[7],increased keratinocyte formation
same,phototoxicity or photoallergenity,[8],No phototoxicity or photoallergenity
same,skin irritation,[9],No skin irritation
same,LD50,[10],greater than 2.0 g/kg
same,skin irritation,[11],No skin irritation
same,cutaneous inflammation and erythema associated with UVR exposure,[12],blocked
C=C(C)[C@@H]1CCC2=CC(=O)C[C@@H](C)[C@]2(C)C1 [nootkatone],loricrin and vascular endothelial growth factor (VEGF) genes,[5],upregulation
same,matrix metalloproteinases,[5],downregulation
same,inflammation genes induced by UVR,[5],blocked
same,toxicity,[13],does not appear to be toxic
same,keratinocyte formation,[7],increased keratinocyte formation
same,cutaneous inflammation and erythema associated with UVR exposure,[12],blocked
C=C(C)[C@@H]1CC=C(CO)CC1 [perillyl alcohol],levels of UV-induced reactive oxygen species,[14],markedly reduced
same,initiation of breast cancer,[3],almost completely prevented
same,UVB-induced non-melanoma tumors,[15],reduction
